# Results published in paper PMC9545781 (British Journal of Clinical Pharmacology, 2022).
# Experiments:
# [1] = Open-label clinical pharmacokinetic study of oral XBD173 and etifoxine in healthy volunteers (plasma LC-MSMS); format: in vivo, human; conditions: for AUClast / AUC(0-t) / Cmax / Tmax: 90 mg XBD173 single oral dose
# Description: This was a single centre, open‐label study enrolling 4 adult healthy volunteers (aged 35–65 y) irrespective of rs6971 genotype. Detailed inclusion and exclusion criteria are shown in the supplementary information. […] As a precaution, therefore, a long washout period was chosen. The first dose was taken at the clinical research facility and the participant was monitored for 4 hours. Subsequent doses were taken at home by the participant. On day 7, the participant returned for a final assessment. […] The PI of the study was Paul M. Matthews (DPhil, FRCP, FMedSci) who is an author on the manuscript.
# Plasma samples for pharmacokinetic analysis were obtained on day 1 at 0.5, 1, 2, 3, 4 hours following the first dose. […] Plasma samples were stored at −20°C or lower until analysis. Plasma samples (25 μL) were prepared for analysis by protein precipitation with acetonitrile containing internal standard (tolbutamide; 200 μL) followed by mixing (150 rpm, 15 min) and centrifugation (1500 g, 15 min). The supernatant (50) μL was diluted with water (100 μL) and mixed (100 rpm, 15 min). […] Injection volume was 1 μL.
# TSPO [2] = assay: Estimates of TSPO occupancy from plasma concentration and binding affinity; parameters: species or system human; conditions: 90 mg oral XBD173
# TSPO [3] = conditions: cited from earlier work
# [4] = parameters: method as in PMID 19541954; conditions: cited from earlier work
# in vitro = conditions: plasma, pH 7.4
# Description: (§1) Plasma protein binding was measured by equilibrium dialysis using 96‐well plate blocks with 2 compartments separated by a vertical cylinder of dialysis membrane (molecular weight cut off ~8000 Da; ThermoFisher Scientific). […] The unit was covered and incubated at 37°C on an orbital shaker for 4 hours. After incubation, samples from both plasma (bound) chamber and the buffer (free) chamber were taken and matrix‐matched by addition of the alternative blank matrix. Acetonitrile containing internal standard was added to all samples. […] The ratio of responses in free to bound samples equates to the free fraction.
# [5] = Plasma protein binding by equilibrium dialysis; conditions: plasma spiked at 1 μM, 37°C, 4 hours, mean (SEM)
# Description: as §1
# [6] = human, plasma, po, 90 mg, 90mg XBD173 single oral dose, Mean (SEM)
# [7] = human, plasma, po, 90 mg, 90mg XBD173 single oral dose, participant 1
# [8] = human, plasma, po, 90 mg, 90mg XBD173 single oral dose, participant 2
# [9] = human, plasma, po, 90 mg, 90mg XBD173 single oral dose, participant 3
# [10] = human, plasma, po, 90 mg, 90mg XBD173 single oral dose, participant 4
# [11] = human, plasma, po, 90 mg, Median of 4 participants
# [12] = human, plasma, po, 90 mg, participant 1
# [13] = human, plasma, po, 90 mg, participant 2
# [14] = human, plasma, po, 90 mg, participant 3
# [15] = human, plasma, po, 90 mg, participant 4
smiles,measurement,setting,value
CCN(Cc1ccccc1)C(=O)Cn1c(=O)n(C)c2cnc(-c3ccccc3)nc21 [XBD173],AUClast,"[1]; plasma, Max of 4 participants",556 ng·h/mL
same,AUClast,"[1]; plasma, Min of 4 participants",74 ng·h/mL
same,Estimate of plasma concentration (total),[1]; 90 mg oral XBD173,~ 320 nM
same,Adverse events,"[1]; 4 healthy volunteers, XBD173 90 mg once daily 7 days and etifoxine 50 mg TDS 7 days",No adverse events were reported
same,concentration at 30 min,"[1]; human, plasma, po, 90 mg, 90mg XBD173 single oral dose, 30 mins, participant 2",5.7 ng/mL
same,concentration at 60 min,[1]; [6],31.2 ng/mL
same,concentration at 60 min,[1]; [7],28.4 ng/mL
same,concentration at 60 min,[1]; [8],15.4 ng/mL
same,concentration at 60 min,[1]; [9],62.7 ng/mL
same,concentration at 60 min,[1]; [10],18.4 ng/mL
same,concentration at 120 min,[1]; [6],106 ng/mL
same,concentration at 120 min,[1]; [7],55.8 ng/mL
same,concentration at 120 min,[1]; [8],24.2 ng/mL
same,concentration at 120 min,[1]; [9],263 ng/mL
same,concentration at 120 min,[1]; [10],82.7 ng/mL
same,concentration at 180 min,[1]; [6],99.7 ng/mL
same,concentration at 180 min,[1]; [7],43.3 ng/mL
same,concentration at 180 min,[1]; [8],23 ng/mL
same,concentration at 180 min,[1]; [9],161 ng/mL
same,concentration at 180 min,[1]; [10],171 ng/mL
same,concentration at 240 min,[1]; [6],87.6 ng/mL
same,concentration at 240 min,[1]; [7],40.4 ng/mL
same,concentration at 240 min,[1]; [8],24.5 ng/mL
same,concentration at 240 min,[1]; [9],139 ng/mL
same,concentration at 240 min,[1]; [10],146 ng/mL
same,AUC(0-t),[1]; [11],247 ng·h/mL
same,Cmax,[1]; [11],114 ng/mL
same,Tmax,[1]; [11],2.5 h
same,AUC(0-t),[1]; [12],148 ng·h/mL
same,Cmax,[1]; [12],56 ng/mL
same,Tmax,[1]; [12],2 h
same,AUC(0-t),[1]; [13],74 ng·h/mL
same,Cmax,[1]; [13],25 ng/mL
same,Tmax,[1]; [13],4 h
same,AUC(0-t),[1]; [14],556 ng·h/mL
same,Cmax,[1]; [14],263 ng/mL
same,Tmax,[1]; [14],2 h
same,AUC(0-t),[1]; [15],345 ng·h/mL
same,Cmax,[1]; [15],171 ng/mL
same,Tmax,[1]; [15],3 h
same,Predicted TSPO occupancy,"TSPO [2]; from free plasma concentration, in HABs",~ 30%
same,Predicted TSPO occupancy from total plasma concentration,TSPO [2]; total plasma concentration ~320 nM,> 99%
same,Affinity for TSPO in the human brain,TSPO [3],2 to 3 nM
same,Peak plasma concentrations,[4]; 90‐mg dose,micromolar range
same,Plasma concentration reached,[4]; 90‐mg dose,1000 nM
same,Accumulation on repeated dosing,[4],does not accumulate
same,"fraction unbound at 4 h, 1 μM",in vitro,0.0034
same,Fraction in plasma bound,[5],99.66%
